We go through 21 compounds from patent US12459922B2 (Gilead Sciences, Inc., priority 2022, dated 2025).

Each structure is given as a SMILES string.

The target in experiment [1] is T1, PARP7 (Homo sapiens, UniProt Q7Z3E1).
T1 sequence (Q7Z3E1 1-657): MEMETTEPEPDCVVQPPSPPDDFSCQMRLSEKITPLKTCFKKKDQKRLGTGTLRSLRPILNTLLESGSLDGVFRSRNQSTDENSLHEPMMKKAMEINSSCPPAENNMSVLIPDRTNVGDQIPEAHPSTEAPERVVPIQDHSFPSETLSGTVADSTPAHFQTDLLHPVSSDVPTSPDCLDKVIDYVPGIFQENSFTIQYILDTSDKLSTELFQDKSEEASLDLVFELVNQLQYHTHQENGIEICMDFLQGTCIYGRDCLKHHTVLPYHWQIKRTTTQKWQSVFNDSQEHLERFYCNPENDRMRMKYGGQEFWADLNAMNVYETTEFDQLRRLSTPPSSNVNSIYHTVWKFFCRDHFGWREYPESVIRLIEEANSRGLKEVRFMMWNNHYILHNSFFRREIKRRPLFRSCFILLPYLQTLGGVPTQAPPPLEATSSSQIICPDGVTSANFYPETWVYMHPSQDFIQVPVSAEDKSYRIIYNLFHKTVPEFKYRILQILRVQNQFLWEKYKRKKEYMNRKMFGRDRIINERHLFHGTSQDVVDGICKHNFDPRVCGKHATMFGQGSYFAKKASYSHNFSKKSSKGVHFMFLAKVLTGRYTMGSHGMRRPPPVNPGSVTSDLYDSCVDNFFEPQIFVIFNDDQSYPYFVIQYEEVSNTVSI
Nature of the experiment: Probe Displacement Assay for PARP7 (MSD electrochemiluminescent, biotinylated probe RBNO11147). To be noted: displacement of biotinylated probe RBNO11147 from PARP7 NAD+-binding site; read-out: MSD ProbeDisp PARP7 IC50.

Experiment [2] relates to endogenous cellular STAT1 (phosphorylated at Tyr701) in NCI-H1373 cells. Nature of the experiment: Phospho-STAT1 (Tyr701) LANCE Ultra TR-FRET Detection Assay. The experiment is classed as cell-based. To be noted: Homo sapiens, NCI-H1373, 48 h, phospho-STAT1 (Tyr701) induction, read-out: NH1373 pSTAT1 EC50. (In general: TR-FRET usually uses a lanthanide donor and a delayed reading to cut background.)

As usually defined, the IC50 is the concentration that gives 50% inhibition. The EC50 is the concentration that produces a half-maximal response. Regarding `C[C@@H](CCCn1ccc2cc(-c3ccc(C4(C#N)CC4)cn3)cc(F)c2c1=O)Nc1cn[nH]c(=O)c1C(F)(F)F` [Example 38, 1-[6-[8-fluoro-1-oxo-2-[(4S)-4-[[6-oxo-5-(trifluoromethyl)-1H-pyridazin-4-yl]amino]pentyl]-6-isoquinolyl]-3-pyridyl]cyclopropanecarbonitrile], the IC50 in experiment [1] worked out at 0.3 nM. Also, the EC50 in experiment [2] stood at 579 nM.
For `C[C@@H](CCCn1ccc2cc(-c3ncc(CN)cn3)c(F)cc2c1=O)Nc1cn[nH]c(=O)c1C(F)(F)F` [Example 302, (S)-6-(5-(aminomethyl)pyrimidin-2-yl)-7-fluoro-2-(4-((6-oxo-5-(trifluoromethyl)-1,6-dihydropyridazin-4-yl)amino)pentyl)isoquinolin-1(2H)-one] the same measures were 2.06 nM and 108 nM.
As for `C[C@@H](CCCn1cnc2cc(-c3ncc(C(F)(F)F)cn3)c(F)cc2c1=O)Nc1cn[nH]c(=O)c1C(F)(F)F` [Example 29, (S)-6-fluoro-3-(4-((6-oxo-5-(trifluoromethyl)-1,6-dihydropyridazin-4-yl)amino)pentyl)-7-(5-(trifluoromethyl)pyrimidin-2-yl)quinazolin-4(3H)-one], in experiment [1], the IC50 was 1.6 nM. In experiment [2], the EC50 is 31.6 nM.
In the case of `O=c1[nH]ncc(N[C@H](CCCn2ccc3cc(-c4ncc(C(F)F)cn4)c(F)cc3c2=O)COC(F)F)c1C(F)(F)F` [Example 377, (R)-2-(5-(difluoromethoxy)-4-((6-oxo-5-(trifluoromethyl)-1,6-dihydropyridazin-4-yl)amino)pentyl)-6-(5-(difluoromethyl)pyrimidin-2-yl)-7-fluoroisoquinolin-1(2H)-one], the IC50 in experiment [1] was found to be 0.179 nM. In addition, in experiment [2], the EC50 was determined as 1.15 nM.
For `C[C@@H](CCCn1ccc2cc(-c3ncc(C(F)(F)F)s3)c(F)cc2c1=O)Nc1cn[nH]c(=O)c1C(F)(F)F` [Example 309, (S)-7-fluoro-2-(4-((6-oxo-5-(trifluoromethyl)-1,6-dihydropyridazin-4-yl)amino)pentyl)-6-(5-(trifluoromethyl)thiazol-2-yl)isoquinolin-1(2H)-one] the same measures were 0.258 nM and 149 nM.
For `C[C@@H](CCCn1ccc2cc(-c3ccc(OC(F)F)cn3)cc(F)c2c1=O)Nc1cn[nH]c(=O)c1C(F)(F)F` [Example 17, (S)-6-(5-(difluoromethoxy)pyridin-2-yl)-8-fluoro-2-(4-((6-oxo-5-(trifluoromethyl)-1,6-dihydropyridazin-4-yl)amino)pentyl)isoquinolin-1(2H)-one] the same measures were 0.4 nM and 117 nM.
As to `Cc1cc2cc(-c3ncc(C(F)(F)F)cn3)ccc2c(=O)n1CCC[C@H](C)Nc1cn[nH]c(=O)c1C(F)(F)F` [Example 45, 3-methyl-2-[(4S)-4-[[6-oxo-5-(trifluoromethyl)-1H-pyridazin-4-yl]amino]pentyl]-6-[5-(trifluoromethyl)pyrimidin-2-yl]isoquinolin-1-one], the IC50 in experiment [1] was 1.19 nM. The EC50 in experiment [2] was determined as 617 nM.
For `Nc1nc(-c2cc3ccn(CCC[C@H](COC(F)F)Nc4cn[nH]c(=O)c4C(F)(F)F)c(=O)c3cc2F)ncc1C(F)(F)F` [Example 379, (R)-6-(4-amino-5-(trifluoromethyl)pyrimidin-2-yl)-2-(5-(difluoromethoxy)-4-((6-oxo-5-(trifluoromethyl)-1,6-dihydropyridazin-4-yl)amino)pentyl)-7-fluoroisoquinolin-1(2H)-one], in that order: 0.14 nM and 2.43 nM.
For `CC[C@@H](CCCn1ccc2cc(-c3ncc(C(F)(F)F)cn3)c(F)cc2c1=O)Nc1cn[nH]c(=O)c1C(F)(F)F` [Example 37, 7-fluoro-2-[(4S)-4-[[6-oxo-5-(trifluoromethyl)-1H-pyridazin-4-yl]amino]hexyl]-6-[5-(trifluoromethyl)pyrimidin-2-yl]isoquinolin-1-one], in that order: 0.4 nM and 42.7 nM.
For `CC(=O)c1c(N[C@@H](C)CCCn2ccc3cc(-c4ncc(C(F)(F)F)cn4)c(F)cc3c2=O)cn[nH]c1=O` [Example 16, (S)-2-(4-((5-acetyl-6-oxo-1,6-dihydropyridazin-4-yl)amino)pentyl)-7-fluoro-6-(5-(trifluoromethyl)pyrimidin-2-yl)isoquinolin-1(2H)-one] the same measures were 0.2 nM and 25.2 nM.
As to `C[C@@H](CCCn1ccc2cc(-c3ncc(C(F)F)c(N)n3)c(F)cc2c1=O)Nc1cn[nH]c(=O)c1C(F)(F)F` [Example 104, 6-[4-amino-5-(difluoromethyl)pyrimidin-2-yl]-7-fluoro-2-[(4S)-4-[[6-oxo-5-(trifluoromethyl)-1H-pyridazin-4-yl]amino]pentyl]isoquinolin-1-one], the IC50 in experiment [1] was 0.33 nM. Also, the EC50 in experiment [2] was found to be 4.6 nM.
Take `C[C@@H](CCCn1ccc2cc(-c3ncc(C(F)(F)F)c(N4C[C@H](O)C[C@@H]4C)n3)c(F)cc2c1=O)Nc1cn[nH]c(=O)c1C(F)(F)F` [Example 313, 7-fluoro-6-(4-((2S,4R)-4-hydroxy-2-methylpyrrolidin-1-yl)-5-(trifluoromethyl)pyrimidin-2-yl)-2-((S)-4-((6-oxo-5-(trifluoromethyl)-1,6-dihydropyridazin-4-yl)amino)pentyl)isoquinolin-1(2H)-one]: the IC50 in experiment [1] was found to be 0.192 nM. The EC50 in experiment [2] came out at 18.4 nM.
For `C[C@@H](CCCn1ccc2cc(-c3nc(C(F)(F)F)n(C)n3)c(F)cc2c1=O)Nc1cn[nH]c(=O)c1C(F)(F)F` [Example 300, (S)-7-fluoro-6-(1-methyl-5-(trifluoromethyl)-1H-1,2,4-triazol-3-yl)-2-(4-((6-oxo-5-(trifluoromethyl)-1,6-dihydropyridazin-4-yl)amino)pentyl)isoquinolin-1(2H)-one] the same measures were 0.413 nM and 56.1 nM.
For the compound `C[C@@H](CCCn1ccc2cc(-c3ncc(C(F)(F)F)cn3)cc(F)c2c1=O)Nc1cn[nH]c(=O)c1C(F)(F)F` [Example 7, 8-fluoro-2-[(4S)-4-[[6-oxo-5-(trifluoromethyl)-1H-pyridazin-4-yl]amino]pentyl]-6-[5-(trifluoromethyl)pyrimidin-2-yl]isoquinolin-1-one], the IC50 in experiment [1] is 0.3 nM. Moreover, the EC50 in experiment [2] worked out at 61.3 nM.
With `C[C@@H](CCCn1ccc2cc(-c3ncc4c(n3)NC(=O)CO4)c(F)cc2c1=O)Nc1cn[nH]c(=O)c1C(F)(F)F` [Example 185, (S)-2-(7-fluoro-1-oxo-2-(4-((6-oxo-5-(trifluoromethyl)-1,6-dihydropyridazin-4-yl)amino)pentyl)-1,2-dihydroisoquinolin-6-yl)-6H-pyrimido[5,4-b][1,4]oxazin-7(8H)-one], the IC50 in experiment [1] came out at 0.11 nM. For the same compound, in experiment [2], the EC50 was determined as 1750 nM.
As for `C[C@@H](CCCn1ccc2cc(-c3cccc4c3OCC4)c(F)cc2c1=O)Nc1cn[nH]c(=O)c1C(F)(F)F` [Example 26, (S)-6-(2,3-dihydrobenzofuran-7-yl)-7-fluoro-2-(4-((6-oxo-5-(trifluoromethyl)-1,6-dihydropyridazin-4-yl)amino)pentyl)isoquinolin-1(2H)-one], the IC50 in experiment [1] was 0.4 nM. In experiment [2], the EC50 amounted to 10000 nM.
For `C[C@@H](CCCn1ccc2c(F)c(-c3ccc(C(F)(F)F)cn3)ccc2c1=O)Nc1cn[nH]c(=O)c1C(F)(F)F` [Example 10, 5-fluoro-2-[(4S)-4-[[6-oxo-5-(trifluoromethyl)-1H-pyridazin-4-yl]amino]pentyl]-6-[5-(trifluoromethyl)-2-pyridyl]isoquinolin-1-one] the same measures were 0.7 nM and 291 nM.
Turning to `COc1cnc(-c2cc3ccn(CCC[C@H](C)Nc4cn[nH]c(=O)c4C(F)(F)F)c(=O)c3cc2F)nc1` [Example 22, (S)-7-fluoro-6-(5-methoxypyrimidin-2-yl)-2-(4-((6-oxo-5-(trifluoromethyl)-1,6-dihydropyridazin-4-yl)amino)pentyl)isoquinolin-1(2H)-one], the IC50 in experiment [1] came out at 0.4 nM. Further, the EC50 in experiment [2] amounted to 71.3 nM.
For `C[C@@H](CCCn1ccc2cc(-c3ccc(C(F)(F)F)cn3)c(F)cc2c1=O)Nc1cn[nH]c(=O)c1C(F)(F)F` [Example 9, 7-fluoro-2-[(4S)-4-[[6-oxo-5-(trifluoromethyl)-1H-pyridazin-4-yl]amino]pentyl]-6-[5-(trifluoromethyl)-2-pyridyl]isoquinolin-1-one], in that order: 0.4 nM and 92.1 nM.
For `CC[C@@H](CCCn1cnc2cc(-c3ncc(C(F)F)cn3)c(F)cc2c1=O)Nc1cn[nH]c(=O)c1C(F)(F)F` [Example 156, 7-[5-(difluoromethyl)pyrimidin-2-yl]-6-fluoro-3-[(4S)-4-[[6-oxo-5-(trifluoromethyl)-1H-pyridazin-4-yl]amino]hexyl]quinazolin-4-one], in that order: 0.29 nM and 22.1 nM.
With `C[C@@H](CCCn1ccc2nc(-c3ccc(C(F)(F)F)cn3)ccc2c1=O)Nc1cn[nH]c(=O)c1C(F)(F)F` [Example 14], the half-maximal inhibitory concentration (IC50) in experiment [1] stood at 0.5 nM. Also, the EC50 in experiment [2] was determined as 94.3 nM.
